Reference: patent US20160340704A1, “METHOD OF MAKING A BENZYLISOQUINOLINE ALKALOID (BIA) METABOLITE, ENZYMES THEREFORE” (VALORBEC SOCIÉTÉ EN COMMANDITE, priority 2014, published 2016)
“Also recorded” adds a separate entry of the source.

Legend:
[1] = Relative abundance of BIAs in culture supernatants and cell extracts; format: cell-based, Saccharomyces cerevisiae; settings: for fraction in which the BIA is mainly found (supernatant or cell extract): strains with heterologous enzymes
Protocol: Whole cell substrate feeding assays were used to test the function of each enzyme block individually and in combinations. To prepare the cells for the feeding assays, a colony of S. cerevisiae was inoculated in YNB-DO-GLU and incubated for 24 hours. Cultures were diluted to an OD600 of 0.8 into 6 ml of fresh YNB-DO-GLU and incubated for an additional 7 hours. Cells were harvested by centrifugation at 2000×g for 2 min. Supernatants were decanted and cells were suspended in 2 ml of Tris-EDTA (10 mM Tris-HCl, 1 mM EDTA, pH 8), containing 10 μM of one of the following feeding substrates: (R,S)-norlaudanosoline, (S)-reticuline, (S)-scoulerine or (S)-stylopine. Cells were incubated for 16 hours then harvested by centrifugation at 15000×g for 1 min. For BIA extraction from cells, the cell pellet was suspended in 500 μl methanol with ˜50 μl acid-washed glass beads and vortexed for 30 min. Cell extracts were clarified by centrifugation at 15000×g for 1 min and used directly for LC-MS analysis.
Detection of alkaloids in the sanguinarine biosynthetic pathway was performed by FT-MS using a 7T-LTQ FT ICR instrument (Thermo Scientific, Bremen, Germany). Alkaloids were separated by reverse phase HPLC (Perkin Elmer SERIES 200 Micropump, Norfolk, Conn.) using an Agilent Zorbax™ Rapid Resolution HT C18 2.1*30 mm, 1.8 micron column. Solvent A (0.1% acetic acid) and solvent B (100% acetonitrile) were used in a gradient elution to separate the metabolites of interest as follows: 0-1 min at 100% A, 1-6 min 0 to 95% B (linear gradient), 7-8 min 95% B, 8-8.2 min 100% A, followed by a 1 min equilibration at 100% A. Three microliters of either cell extract or supernatant fraction were loaded on the HPLC column run at a flow rate of 0.25 ml/min. Dilutions in methanol were performed to keep alkaloid concentrations within the range of standard curve values and avoid saturating FT signals. Following LC separation, metabolites were injected into the LTQ-FT-MS (ESI source in positive ion mode) using the following parameters: resolution, 100000; scanning range, 250 to 450 AMU; capillary voltage, 5 kV; source temperature, 350° C.; AGC target setting for full MS were set at 5×10^5 ions. Identification of alkaloids was done using retention time and exact mass (<2 ppm) of the monoisotopic mass of the protonated molecular ion [M+H]^+. LC-FT-MS data were processed using the freely available program Maven^56. When available authentic standards were used to confirm the identity of the BIA intermediates (using HPLC retention times and exact masses) and to quantify sanguinarine alkaloids. When unavailable, we assumed equal ionization efficiency between an intermediate and the closest available quantifiable alkaloid (m/z 302 and m/z=316: reticuline; cheilanthifoline: stylopine).
To confirm functional expression of enzymes, plasmids expressing each of the three blocks were individually transformed into S. cerevisiae and cultures of the strains were supplemented with either (R,S)-norlaudanosoline, (S)-reticuline, (S)-scoulerine or (S)-stylopine. Functional expression was verified by detection of the expected end products. As negative controls, yeast strains lacking enzyme blocks were incubated with each of the pathway intermediate to evaluate substrate recovery and to assess the relative proportion recovered in cellular extracts versus culture supernatants.

cheilanthifoline = assay: CYP719 Ring A closure of cheilanthifoline to stylopine in GC1333; format: cell-based, Saccharomyces cerevisiae
Protocol: FIG. 11A-B: showing conversion of (S)-cheilanthifoline (FIG. 11A) or (S)-nandinine (FIG. 11B) to (S)-stylopine by purchased CYP719s. Plasmids harboring CYP719s were transformed into GC1333 containing an integrated PsCPR. Strains were incubated with the appropriate BIA overnight, and then total BIAs were extracted and total molar ratios were compared. PsSPSΔN was used as a control.
The 10 CYP719s with 95% activity on Ring A of scoulerine and the 10 CYP719s with activity on Ring B of scoulerine were tested for activity on cheilanthifoline and nandinine, respectively, in order to generate a branched stylopine synthesis pathway. […] CYP719s PsCFS and EX101, capable of converting >98% of scoulerine to cheilanthifoline and nandinine, respectively, were incubated with scoulerine. After 16 h, cells were pelleted and the supernatant fraction was collected. The supernatant was then applied to fresh yeast strains in order to supplement them with either TE containing nandinine or cheilanthifoline as necessary.

Oc1ccc(CC2NCCc3cc(O)c(O)cc32)cc1O (racemic) [(R,S)-norlaudanosoline]
share of fed BIA found in the cell extract after 16 hours of incubation ([1]; wild-type / negative control cells, 16 hours): 10%
share of fed BIA found in the cell extract, initially ([1]; wild-type cells, 0 hours): 3%

c1cc2c(c3c1C[C@H]1c4cc5c(cc4CCN1C3)OCO5)OCO2 [(S)-stylopine]
fraction in which the BIA is mainly found (supernatant or cell extract) ([1]; 16 hours): predominantly found in the cell extract; also recorded: mostly found in the cellular extract fraction

C[N@@+]12CCc3cc4c(cc3[C@@H]1Cc1ccc3c(c1C2)OCO3)OCO4 [N-methylstylopine]
share of BIA found in the culture supernatant ([1]; Block 3 feeding assay, 16 hours): Approximately 55%

CN1Cc2c(ccc3c2OCO3)-c2ccc3cc4c(cc3c21)OCO4 [dihydrosanguinarine]
fraction in which the BIA is mainly found (supernatant or cell extract) ([1]; 16 hours): mostly found in the cellular extract fraction

COc1cc2c(cc1O)C1Cc3ccc4c(c3CN1CC2)OCO4 (stereo not drawn) [Cheilanthifoline, cheilanthifoline]
fraction in which the BIA is mainly found (supernatant or cell extract) ([1]; 16 hours): mainly found in the supernatant

B1: EX56: CYP719 from Chelidonium majus, SEQ ID NO: 335 (protein, listed as Chelidonium majus)
chain: MLLILIMDFRNSRSNLNPAKMEELMSDPWIITATTLAVVILLTTILRRKSSSMKWPKGPKTLPIIGNMHLFGGTDLHVVLYNIAKVYGNVMTIWIGSWRPVIVISDIERAWEVLVNKSSDYSARDMPEITKLISSDWKTISTSDAGAFWTNLRKGLQNVALSPHNLASQFQFQESDIKKLIETIKEEAAVNNGIVKPLDHLKKAMVRLISRLVFGQDFDNDEYVEGMHHAIEELIRVSGYARLAEAFYYAKYLPSHKKAVRDVEEANRRVQKLVRPFLSLNPPTNTYLHFLRSQNYSEEVIIFAIFEAYLLGVDSTSSTTAWALAFLIREPNVQEKLYQELKNFTVKNGRDMLKVEDINKLPYLQATIKETMRMKPIAPLAIPHKACRDTSLKGSKIDKGTRVMVNIYALHHNEKIWKEPFKFMPERFLQTEGENGKAMEQSFLPFSAGMRICAGMELGKLQFNFALANLVNAFKWSCVADGVLPDMSDQLGFVLVMKTPLEARITSRC
conversion of cheilanthifoline to stylopine (cheilanthifoline): > 98%

B2: EX96: CYP719 from Sanguinaria canadensis, SEQ ID NO: 375 (protein, listed as Sanguinaria canadensis)
chain: MEFEKIMMSNPWILAATTAVVFISITAIFFRRKSSSMEWPTGPKTLPIIGNMHLLGGTALHVVLHNFAKIYGNVMTIWIGSWRPVIVVSDIDRAWEVLVNKSSDYSARDMPEITKIISADWKTISTSDSGPFWTNLRKGLQNVALSPHNLAAQARFQERDISKMIETLKEEAALNNGIVKPLDHLKKATVRLISRLIYGQEFDNNKYVEDMHHAIEELIRVSGYARLAEAFYYAKYLPSHKKAVRDVEEANRRVKNLVRPFLSSNPPTNCYLHFLRTQNYPEEVIIFAIFEAYLLGVDSTSSTTAWALAFLVREPNVQEKLYQELKNFTTNNDRKMLKVEDINKLQYLQAVIKETMRMKPIAPLAIPHKACKETSLMGSKVDKGTRVMVNIYALHHNQKVWKEPYKFMPERFLETDNQDGNVGKAMEQSLLPFSAGMRICAGMELGKLQFTFSLANLVNAFKWSCVSDGVLPDMSDQLGFVLLMKNPLEARIVPRS
conversion of cheilanthifoline to stylopine (cheilanthifoline): > 98%

B3: EX42: CYP719 from Argemone mexicana, B1NF19.1, SEQ ID NO: 321 (protein, listed as Argemone mexicana)
chain: MEEKIMTNNSPWILTSSTTTTTTILLSLLFTIFIILRRNKSSSSKMVWPTGPKTLPIIGNMNILGGTALHVVLHNLAKTYGNVMTIWIGSWRPVIVVSDIDRAWEVLVNKSSDYSARDMPEITKLATADWKTISSSDSGPFWTNLRKGLQNVALSPQNLSSQSKFQERDIIKTIQNLKEEAKMNNGIVKPLDHLKKAMVRLISRLIYGQDFDNDEYVEEMHHTIEELIRVSGYARLAEAFYYAKYLPSHKKAVREVLQANQRVQNLVRPLLSLNSPTNTYLHFLRSQNYEDEVIIFAIFEAYLLGVDSTSSTTAWALAYLIREPNVQEKLYEELKNFTNDNDRKMVKFEDLNKLQYLQAVVKETMRMKPIAPLAIPHKACRETSLMGRKVNQGTRVMVNIYALHHNQNVWKEPYKFNPERFLQKNQDGVDGKAMEQSLLPFSAGMRICAGMELGKLQFSFALANLVNAFKWSCVSDGVFPDMSDQLGFVLLMKTPLEAGIVPRM
conversion of cheilanthifoline to stylopine (cheilanthifoline): > 98%

B4: EX67: CYP719 from Glaucium flavum, SEQ ID NO: 346 (protein, listed as Glaucium flavum)
chain: MEMKSSVVFSYPAMEELFKSNPWVITGTTLAVLILMTTMFRKKSLSMKWPKGPKTLPIIGNMHLLGGTNLQVILHNMSKVYGNVMTIWIGSWRPVIVVSDIERAWEVLVNKSSDYSGRDMPEITKIISADWKTISTSDSGPHWTNLRKGLQNVALSPHNLAAQFQFQERDICKLIETLKEEAKLNNGIVKPLDHLKKATIRLISRLVFGQDFDNSKYVEDMHHAIEELIRVSGYARLADAFYYAKYLPSQKKAVRDVEEAQRRVQRLVRPFLSLNPPTNCYLHFLRSQNYSDEVIIFAIFEAYLLGVDSTSSTTAWALAFLVREPNVQEKLYQELKNFTAKNGREMLKVEDINKLPYLQAVIKETMRMKPIAPLAIPHKACRDTSLKGRKIDKGTQIMVNIYALHHNENVWKEPFKFMPERFLQTDQDVNGKAMDQSLLPFSAGMRICAGMELGKLQFSFSLANLLNTFQWSCVADGVLPDMSDQLGFVLLMKTPLEARITPRC
conversion of cheilanthifoline to stylopine (cheilanthifoline): > 98%

B5: EX101: CYP719 from Stylophorum diphyllum, SEQ ID NO: 380 (protein, listed as Stylophorum diphyllum)
chain: MESLIDFSNPAKMEELMSNPWIITAITLAVVIIMMTIFRRKSSSMKWPKGPKTLPIIGNMHLFGGTDLHVVLYNIAKVYGNVMTIWIGSWRPVIVISDIERAWEVLVNKSSDYSARDMPEITKLISSDWKTISTSDAGAFWTNLRKGLQNVALSPHNLASQFQFQESDIKKLIETIKEEGAVNNGIVKPLDHLKKAMVRLISRLIFGQDFDNDKYVEGMHHAIEELIRVSGYARLAEAFYYAKYLPSHKKAVRDVEEANRRVQKLVRPFLSLNPPTNTYLHFLRSQNYSEEVIIFAIFEAYLLGVDSTSSTTAWALAFLIREPNVQEKLYQELKNFTVKNGRDMLKVEDINKLPYLQATIKETMRMKPIAPLAIPHKACRDTSLMGSKIDKGTRVMVNIYALHHNEKIWKEPFKFMPERFLQTEGEVNGKAMEQSFLPFSAGMRICAGMELGKLQFNFALANLVNAFKWSCVADGVLPDMSDQLGFVLVMKTPLEARITPRC
conversion of cheilanthifoline to stylopine (cheilanthifoline): > 98%

B6: EX76: CYP719 from Nandina domestica, SEQ ID NO: 355 (protein, listed as Nandina domestica)
chain: MEESFWIVSATIVVVFVIATMFRKSSSISSKTEWPAGPKKLPVIGNLHQLGGDVLHVVLANLAKVYGTVMTVWVGSWKPMIVISDIDRAWEVLVNKSSDYSGRAMPEITEIISAKGKTISTSDSGPHWSNLRKGLQNVALSPHNIAAQSRFQESDITKMIKTLKQEAASNNGIVQPLDHLKKSTVRLISRLIFGQDFDDDEYVEAMHLAVEELIRVSGYARLAEAFYYAKYLPSHKRAVSEVWEANRRVKRIVKPRLSANPPPNCYLHFLSSQDYSEEMIIFAIFEAYLLGVDSTSSTTAWALGFLIREPKVQERLYQELKNCAGENGLIKVEDINKLPYLQAVLKETMRMKPIAPLAIPHKAVRETSLAGNKVEPGTRVMVNLYAIHHNPKVWIDPHKFKPERFLQGEENGGGNLKLMEQSLLPFSAGMRTCAGMELGKLQFGFSLANLVNAFQWDCAKKGMFPDMSDLLGFVLLMKTPLQAKIVPRGSPSINGY
conversion of cheilanthifoline to stylopine (cheilanthifoline): > 98%
